The text below walks through data of patent publication US5268361A, “Hydroxyazido derivatives and related compounds as renin inhibitors” (SRI International, priority 1991, dated 1993).

Test system in one experiment: not given
Experiment: not given
The note with it: animals; from cited publications; cited from earlier work.
Regarding `COc1ccc(C[C@H](NC(=O)CC(C)(C)N)C(=O)N[C@@H](Cc2cnc[nH]2)C(=O)N[C@@H](CC2CCCCC2)[C@@H](O)[C@@H](O)CC(C)C)cc1` [Compound A-64662], the Oral activity entry is listed as “orally active in animals”.

In a further experiment the target is T1, human kidney renin (Homo sapiens, UniProt P00797).
T1 construct: 0.24 mGU human kidney renin; from tissue; host or cells: human kidney
T1 sequence (P00797 67-406): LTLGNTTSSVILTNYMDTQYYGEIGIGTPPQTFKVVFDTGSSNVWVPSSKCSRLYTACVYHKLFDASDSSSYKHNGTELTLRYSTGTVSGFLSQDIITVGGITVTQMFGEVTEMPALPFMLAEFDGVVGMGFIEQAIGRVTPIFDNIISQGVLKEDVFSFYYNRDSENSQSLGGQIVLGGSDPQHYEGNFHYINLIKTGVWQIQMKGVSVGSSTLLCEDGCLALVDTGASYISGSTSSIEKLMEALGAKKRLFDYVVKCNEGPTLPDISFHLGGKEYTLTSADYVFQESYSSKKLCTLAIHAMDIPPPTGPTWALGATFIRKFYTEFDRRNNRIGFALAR
The experiment is described as follows: Human renin enzyme assay with angiotensin I radioimmunoassay. It counts as biochemical. The note with it: angiotensinogen substrate, pH 6.0 maleate buffer, 37° C., 50% reduction in the release of angiotensin I. As to the method: a. Human Renin Enzyme Assay. The human renin enzyme assay described by Sham et al., J. Med. Chem. 31:284-295 (1988) was carried out by mixing 0.24 mGU human kidney renin, 0.21 αμM of angiotensinogen in 0.135 M, pH 6.0, maleate buffer containing 3 mM EDTA, 1.4 mM PMSF, and 0.44% BSA. The total assay volume was 100 μl. All inhibitors were dissolved in DMSO first and diluted with 0.5% BSA to give the appropriate concentrations for testing. The final DMSO concentration in the assay mixture was kept constant at 1%. […] For assay, 90 μl of the above-mentioned maleate buffer containing the renin and inhibitor was preincubated at 37° C. for 5 min and the reaction was continued for 10 additional min after adding 10 μl of substrate. The reaction was stopped by immersion of all tubes in a dry ice acetone-methanol bath. All samples were thawed to 0.4° C. and an aliquot from each tube was taken for the Angiotensin I RIA assay.
b. Angiotensin I Radioimmunoassay. A 100 μl portions of 5% BSA containing a small aliquot of the above enzyme mixture was mixed with 100 μl of angiotensin I [^125 I] (500 mCi/mg) in 0.1M Tris-acetate buffer, pH 7.4 (one part angiotensin I in 50 parts buffer), and 500 μl of antiserum (the lyophilized powder was reconstituted with 125 ml of 0.1M Tris-acetate buffer, pH 7.4). The mixture was incubated at 4° C. for 18 to 24 h. At the end of the incubation, 1.0 mL of charcoal suspension (600 mg of charcoal in 50 mL of 0.1M Tris-acetate buffer, pH 7.4) was pipetted into each tube. The charcoal suspension was stirred constantly during the transfer. The samples were mixed and then centrifuged at 3000×g for 15 min. The supernatants were transferred into properly numbered tubed for gamma counting.
A reagent blank was carried out with each assay. The blank tube contained 100 μl of 5% bovine serum albumin (BSA), 100 μl of angiotensin I [^125 I], and 500 μl of 0.1M Tris-acetate buffer.
A standard curve was prepared with each set of experiments by mixing various amounts (5 to 0.1 ng/ml) of angiotensin I in 0.1M Tris-acetate buffer containing 5% BSA and the same amounts of ^125 I-angiotensin I and antiserum as for the RIA assay. The tubes containing the standards were treated exactly like those containing the samples. The amount of angiotensin I produced by the enzyme in each sample was calculated using an angiotensin I standard curve.
The whole process of RIA was carried out at 0° to 4° C. to avoid deterioration of antiserum and angiotensin I. Only polystyrene tubes were used. Polystyrene tubes had shown no affinity for antibody under the assay conditions described above.
An IC50 was calculated for each inhibitor tested by conducting the assay in the presence of different concentrations of inhibitor. The inhibitor concentration that caused a 50% reduction in the release of angiotensin I when compared to control (no inhibitor) values was then calculated.
The term IC50 denotes the concentration at which inhibition is half-maximal. A high value points to weaker potency. With `CC(C)C[C@H](N=[N+]=[N-])[C@H](O)[C@H](CC1CCCCC1)NC(=O)[C@H](Cc1c[nH]cn1)NC(=O)[C@H](Cc1ccccc1)NC(=O)CC(C)(C)N` [IX-6], half-maximal inhibition (IC50) was put at 5.4 nM. Compound `CC(C)CC(N=[N+]=[N-])C(=O)C(CC1CCCCC1)NC(=O)[C@H](Cc1c[nH]cn1)NC(=O)[C@H](Cc1ccccc1)OC(=O)N1CCOCC1` (stereo partly drawn) [VII-2, 4-Azido-7-cyclohexyl-2-methyl-5-oxo-6-[N^α -(2S-(morpholino-N-carbonyloxy)-3-phenylpropionyl)-L-histidyl]amino heptane] had a 50% inhibitory concentration (IC50) of 5.1 nM. With `CC(C)CC(N=[N+]=[N-])C(O)[C@H](CC(C)C)NC(=O)[C@H](Cc1c[nH]cn1)NC(=O)[C@H](Cc1cccc2ccccc12)NC(=O)OCc1ccccc1` (stereo partly drawn) [Compound I-5b, 4-Azido-6-(S)-[N^α -[N-benzyloxycarbonyl-3-(1-naphthyl)-L-alanyl]-L-histidyl]-amino-2,8-dimethyl-5-nonanol], the IC50 came out at 190 nM.

`COCCOCCN(C)C(=O)C[C@@H](Cc1ccccc1)C(=O)N[C@@H](Cc1c[nH]cn1)C(=O)N[C@@H](CC1CCCCC1)[C@@H](O)[C@H](CC(C)C)N=[N+]=[N-]` [XI-2]: half-maximal inhibition (IC50) was put at 0.008 nM. The same measure, in the same setting: with `CC(C)C[C@H](N=[N+]=[N-])[C@H](O)[C@H](CC1CCCCC1)NC(=O)[C@H](Cc1c[nH]cn1)NC(=O)/C(=C/c1ccccc1)CC(=O)N1CCOCC1` [VIII-3, (4S, 5R, 6S)-4-Azido-7-cyclohexyl-5-hydroxy-2-methyl-6-[N^α -[(E)-2-[(4-morphorinylcarbonyl)-methyl]cinnamyl]-L-histidyl]aminoheptane] the figure was 0.85 nM; with `CC(C)C[C@H](N=[N+]=[N-])[C@H](O)[C@H](CC1CCCCC1)NC(=O)[C@H](Cc1c[nH]cn1)NC(=O)[C@H](Cc1ccccc1)OC(=O)N1CCOCC1` [IV-7, (4S, 5R, 6S)-4-Azido-7-cyclohexyl-5-hydroxy-2-methyl-6-[N^α -(2S-(morpholino-N-carbonyloxy)-3-phenylpropionyl)-L-histidyl]aminoheptane], 1.7 nM; with `CC(C)C[C@H](N=[N+]=[N-])[C@H](O)[C@H](CC1CCCCC1)NC(=O)[C@H](Cc1c[nH]cn1)NC(=O)[C@H](Cc1ccccc1)NC(=O)N1CCOCC1` [Compound V-4, (4S, 5R, 6S)-4-Azido-7-cyclohexyl-5-hydroxy-2-methyl-6-[N^α -(N-(morpholino-N-carbonyl)L-phenylalanyl)-L-histidyl]aminoheptane], 0.58 nM. Still for that read-out and setting: the figure for `CC(C)C[C@H](N=[N+]=[N-])[C@H](O)[C@H](CC1CCCCC1)NC(=O)[C@H](Cc1c[nH]cn1)NC(=O)[C@H](Cc1ccccc1)CS(=O)(=O)C(C)(C)C` [Compound X-2b, (4S, 5R, 6S)-4-Azido-7-cyclohexyl-5-hydroxy-2-methyl-6-[N^α -[(S)-2-benzyl-3-(tert-butylsulfonyl)-pripionyl]-L-histidyl]aminoheptane] is 0.006 nM; for `CC(C)C[C@H](N=[N+]=[N-])[C@H](O)[C@H](CC1CCCCC1)NC(=O)[C@H](Cc1c[nH]cn1)NC(=O)C(CC(=O)N1CCOCC1)Cc1ccccc1` (stereo partly drawn) [VI-6b, (4S, 5R, 6S)-4-Azido-6-[N^α -(2-benzyl-3-(morpholino-N-carbonyl)propionyl)-L-histidyl]amino-7-cyclohexyl-5-hydroxy-2-methylheptane] it is 0.64 nM. Take `CC(C)C[C@H](N=[N+]=[N-])[C@H](O)[C@H](CC(C)C)NC(=O)[C@H](Cc1c[nH]cn1)NC(=O)[C@H](Cc1ccccc1)OC(=O)N1CCOCC1` [III-6, (4S, 5R, 6S)-4-Azido-5-hydroxy-2,8-dimethyl-6-[N^α -(2S-(morpholino-N-carbonyloxy)-3-phenylpropionyl)-L-histidyl]aminononane]: 110 nM corresponded to half-maximal inhibition (IC50).

The next experiment relates to Cynomolgus monkeys. The experiment can be described thus: In vivo efficacy: oral administration to Cynomolgus monkeys, blood pressure monitoring. The note with it: salt-depleted, furosemide-pretreated male Cynomolgus monkeys; oral gavage 1.0 mg/kg. The method, then:
b. In vivo efficacy: Oral activity of a number of the compounds of the invention was established by administration to Cynomolgus monkeys, a species known to be susceptible to the antihypertensive effect of renin inhibition. Two male monkeys, young adults approximately 3-6 kg at dosing, were tested over a six-week period. The animal room environment and photoperiod were controlled (temperature approximately 24° C., humidity 50±20%, 12 h light, 12 h dark), as was diet (low salt primate chow, plus discretionary supplements of fruit for at least 7 days prior to dosing). A diuretic (furosemide 1 mg/kg) was given daily by intravenous injection for 7 days prior to dosing.
The compounds of the invention were dissolved in 0.02 N HCl and prepared to the appropriate volume with sterile water. The pH of the solutions were adjusted to approximately 4.0 with 0.02 N NaOH. The solutions were then given orally by an oesophageal gavage at a dose level of 1.0 mg/kg, and a dose volume of 2 mL/kg body weight.
Prior to and following dosing, the animals were connected to an ECG and blood pressure monitor. Systolic, diastolic and mean blood pressure as well as heart rate were measured at 30 second intervals and recorded.
Regarding `CC(C)C[C@H](N=[N+]=[N-])[C@H](O)[C@H](CC1CCCCC1)NC(=O)[C@H](Cc1c[nH]cn1)NC(=O)[C@H](Cc1ccccc1)OC(=O)N1CCOCC1` [IV-7, (4S, 5R, 6S)-4-Azido-7-cyclohexyl-5-hydroxy-2-methyl-6-[N^α -(2S-(morpholino-N-carbonyloxy)-3-phenylpropionyl)-L-histidyl]aminoheptane], the “Reduction in blood pressure” value is reported as “Reduction in blood pressure was seen within approximately 1 to 6 hours”. Same read-out and setting: with `CC(C)C[C@H](N=[N+]=[N-])[C@H](O)[C@H](CC1CCCCC1)NC(=O)[C@H](Cc1c[nH]cn1)NC(=O)[C@H](Cc1ccccc1)CS(=O)(=O)C(C)(C)C` [Compound X-2b, (4S, 5R, 6S)-4-Azido-7-cyclohexyl-5-hydroxy-2-methyl-6-[N^α -[(S)-2-benzyl-3-(tert-butylsulfonyl)-pripionyl]-L-histidyl]aminoheptane] the entry was “Reduction in blood pressure was seen within approximately 1 to 6 hours”.
